The results in this text go back to BindingDB's records for doi:10.1021/acs.jmedchem.6b01892 (University of Regensburg, 2017).

Assay [1] can be described thus: Competitive binding affinity to human muscarinic acetylcholine receptor M2 expressed in […] cell homogenates assessed as W84 pIC50 at 4 nM after 2 hrs by liquid scintillation counting assay.
Assay [2] can be described thus: Competitive binding affinity to human muscarinic acetylcholine receptor M2 expressed in […] cell homogenates assessed as W84 pIC50 at 2 nM after 2 hrs by liquid scintillation counting assay.
Assay [3] in a line: Competitive binding affinity to human muscarinic acetylcholine receptor M2 expressed in […] cell homogenates assessed as W84 pIC50 at 1 nM after 2 hrs by liquid scintillation counting assay.
A short description of assay [4]: Competitive binding affinity to human muscarinic acetylcholine receptor M2 expressed in […] cell homogenates assessed as W84 pIC50 at 0.4 nM after 2 hrs by liquid scintillation counting assay.
The nature of assay [5]: Competitive binding affinity to human muscarinic acetylcholine receptor M2 expressed in […] cells assessed as W84 pIC50 at 30 nM after 2 hrs by liquid scintillation counting assay.
Assay [6] is described as follows: Competitive binding affinity to human muscarinic acetylcholine receptor M2 expressed in […] cells assessed as W84 pIC50 at 15 nM after 2 hrs by liquid scintillation counting assay.
A short description of assay [7]: Competitive binding affinity to human muscarinic acetylcholine receptor M2 expressed in […] cells assessed as W84 pIC50 at 4 nM after 2 hrs by liquid scintillation counting assay.
A short description of assay [8]: Competitive binding affinity to human muscarinic acetylcholine receptor M2 expressed in […] cells assessed as W84 pIC50 at 2 nM after 2 hrs by liquid scintillation counting assay.
Assay [9] can be described thus: Competitive binding affinity to human muscarinic acetylcholine receptor M2 expressed in […] cells assessed as W84 pIC50 at 8 nM after 2 hrs by liquid scintillation counting assay.

pIC50: −log10 of the molar value.

For orientation: pIC50 means the negative decadic logarithm of the IC50, by convention in mol/L. As for `[3H]CC([3H])C(=O)NCc1cc(C(=O)NCCNC(=O)CCc2cn(CCCCC3CCN(CC(=O)N4c5ccccc5NC(=O)c5ccccc54)CC3)cn2)cc(C(=O)NCCNC(=O)CCc2cn(CCCCC3CCN(CC(=O)N4c5ccccc5NC(=O)c5ccccc54)CC3)cn2)c1` (centres undefined), the negative-log IC50 (pIC50) is 4.73 in [1], 4.98 in assay [2], 5.18 in assay [3] and 5.57 in [4].
For `[3H]CC([3H])C(=O)NCCNC(=O)CCc1cn(CCCCC2CCN(CC(=O)N3c4ccccc4NC(=O)c4ccccc43)CC2)cn1` (centres undefined), the pIC50 in assay [5] is 5.68; in assay [6], 5.87; in assay [7] it was 6.55; in assay [8], 6.74; in [9] it was 6.20.
